{
  "source": "patent US20220088031A1",
  "about": "“METHODS AND COMPOSITIONS FOR TREATING RESISTANT AND RECURRENT FORMS OF CANCER” (Health Research, Inc., priority 2019, published 2022)",
  "assay_type_in_all_cases": "cell-based, human",
  "key": {"[1]": {"system": "E006AA cells", "experiment": "Cell death quantification, Trypan blue exclusion assay", "method": "Cell viability assay: PCa cells (5×10^4 cells/well) were seeded on 6-well cell culture plates and incubated with DOC (1-20 nM) for 24 hrs. Floating and attached cells were collected using trypsinization. Live and dead cells were counted under a light microscope using a trypan blue exclusion assay."}, "[2]": {"system": "E006AA cells", "experiment": "Caspase-3 (DEVDase) activity assay", "settings": "DOC 24 hrs; AA PCa cells compared to CA PCa cells", "method": "Caspase-3 (DEVDase) activity assay: PCa cell lysates prepared in NP40 lysis buffer were incubated with DEVD-AFC (caspase-3 substrate) at 37° C. for 90 min in caspase activity assay buffer (50 mM HEPES pH 7.4, 150 mM NaCl, 1% CHAPS, 1 mM EDTA, 1 mM DTT, 50% glycerol). Fluorescence intensity was detected using a Synergy microplate reader at excitation and emission wavelengths of 400 nm and 508 nm, respectively. Arbitrary fluorescence units were normalized with protein content of cell lysates and represented as fold change compared to control groups."}, "[3]": {"system": "E006AA cells", "experiment": "Immunoblot analysis of CC in cytosolic and mitochondrial fractions", "settings": "DOC 24 hrs; AA PCa cells", "method": "(§1) Subcellular fractionation for the preparation of cytosolic and mitochondrial fractions: Cells were seeded on 15 cm cell culture plates followed by treatment with various compounds for the preparation of cytosolic and mitochondrial fractions as described. Cells were harvested via gentle scraping, washed twice with ice cold 1×PBS, and resuspended in homogenization buffer (20 mM HEPES, pH 7.4; 10 mM KCl; 1.5 mM MgCl2; 1 mM EDTA; 1 mM EGTA; 250 mM sucrose) supplemented with freshly added 1× protease inhibitor cocktail and 1 mM DTT. Cells were incubated in homogenization buffer for 30 min in ice and homogenized using a dounce homogenizer (˜25 strokes using pestle A). Cell homogenates were pre-cleared of unbroken cells and debris using centrifugation at 1000 g for 10 min. The supernatant was collected in new tubes and centrifuged at 12000 rpm for 20 min to obtain a mitochondrial pellet, which was washed 3 times with homogenization buffer and lysed in NP40 buffer, and stored as the mitochondrial fraction. The supernatant was ultra-centrifuged to obtain purified cytosol.\n(§2) Immunoblotting: Immunoblotting was performed as described previously. Protein lysates were prepared using a lysis in NP-40 buffer (50 mM Tris-HCl pH 7.4, 150 mM NaCl, 1 mM EDTA, 1 mM EGTA, 1% NP-40) supplemented with protease and phosphatase inhibitor cocktail. Protein content was quantified using a micro BCA protein estimation kit (Thermo Scientific, Waltham, Mass.; Cat #23235). Protein samples were resolved on 4-20% Criterion gels, transferred on nitrocellulose membranes (BioRad, Hercules, Calif.) and subjected to immunoblotting. Membranes were blocked in 5% fat free dry milk (Blotto, Santa Cruz, Dallas, Tex.; Cat #sc-2324) prepared in PBS-T (Tween-20) and incubated overnight in primary antibodies (1:1000 dilution) at 4° C. with continuous shaking. After washing with PBS-T, membranes were incubated in HRP conjugated anti-mouse or anti-rabbit secondary antibody at room temperature for 1 hr. After washing with PBS-T, proteins were detected using Clarity chemiluminescent reagent (BioRad, Hercules, Calif.; Cat #1705061) and X-Ray films (ASI, Fort Lauderdale, Fla.; Cat #XR1570). Membranes were stripped using stripping buffer and probed with HRP conjugated beta-actin antibody to ensure equal loading of proteins."}, "[4]": {"system": "LNCaP cells", "experiment": "Immunoblot analysis of CC and Drp1 in cytosolic and mitochondrial fractions", "settings": "CA PCa cells", "method": "as §1, with “The supernatant was ultra-centrifuged to obtain purified cytosol.” left out\nImmunoblotting: Immunoblotting was performed as described previously. […] Protein content was quantified using a micro BCA protein estimation kit (Thermo Scientific, Waltham, Mass.; Cat #23235). […] After washing with PBS-T, proteins were detected using Clarity chemiluminescent reagent (BioRad, Hercules, Calif.; Cat #1705061) and X-Ray films (ASI, Fort Lauderdale, Fla.; Cat #XR1570). […]"}, "[5]": {"system": "E006AA cells", "experiment": "Clonogenic assay", "settings": "exposure of DOC; AA PCa cells", "method": "(§3) Clonogenic assay: PCa cells were seeded in each well of 6 well cell culture plates. Cells were treated and plates were incubated in a CO2 cell culture incubator for 6 more days. Colonies were fixed in 10% formalin first and stained with 0.5% crystal violet solution. Plates were dried and pictures were captured using a Gel documentation system and Coomassie blue filter (Bio Rad, Hercules, Calif.)."}, "[6]": {"system": "LNCaP, DU145, PC-3 cells", "experiment": "Clonogenic assay", "settings": "exposure of DOC; CA PCa cells", "method": "as §3"}, "[7]": {"system": "E006AA cells", "experiment": "Cell cycle analysis, PI staining", "settings": "DOC 24 hrs; AA PCa cells", "method": "(§4) Cell cycle analysis: Cell cycle phases in LNCaP and E006AA cells were analyzed using Propidium Iodide (PI) staining. Cells were treated with DOC for 24 hrs, fixed in 70% ethanol, stained with PI staining solution (0.1% sodium citrate, 0.2 mg/ml RNAse, 0.05 mg/ml propidium iodide, 0.2% NP 40, 1N HCl), and analyzed using flow cytometry. Data were analyzed using FACS-DIVA software and represented as % cells in each cell cycle phase."}, "[8]": {"system": "LNCaP cells", "experiment": "Cell cycle analysis, PI staining", "settings": "DOC 24 hrs; CA PCa cells", "method": "as §4"}, "[9]": {"system": "p-Drp1^S616 in LNCaP cells", "experiment": "Immunoblot of p-Akt^S473 and p-Drp1^S616 after AKT inhibitor", "settings": "Wort 1 μM", "method": "as §2"}},
  "data": [
    {"smiles": "O=C(O)C(=O)CBr", "note": "[3-BrPA, 3-bromopyruvate]", "values": [
      {"measurement": "cell death", "setting": "[1]; in combination with DOC (24 hrs)", "result": "induced dose-dependent cell death"}
    ]},
    {"smiles": "CC(=O)O[C@@]12CO[C@@H]1C[C@H](O)[C@@]1(C)C(=O)[C@H](O)C3=C(C)[C@@H](OC(=O)[C@H](O)[C@@H](NC(=O)OC(C)(C)C)c4ccccc4)C[C@@](O)([C@@H](OC(=O)c4ccccc4)[C@H]21)C3(C)C", "note": "[DOC, Docetaxel]", "values": [
      {"measurement": "DOC-induced cell death", "setting": "[1]; DOC 24 hrs, AA PCa cells compared to CA PCa cells", "result": "reduced in various AA PCa cells compared to CA PCa cells"},
      {"measurement": "DOC-induced caspase activation", "setting": "[2]", "result": "reduced in various AA PCa cells compared to CA PCa cells"},
      {"measurement": "CC expression and release from mitochondria to cytosol", "setting": "[3]", "result": "not in AA PCa cells"},
      {"measurement": "CC expression and release from mitochondria to cytosol", "setting": "[4]; DOC 24 hrs", "result": "induced CC expression and release from mitochondria to the cytosolic compartment"},
      {"measurement": "Drp1 localization", "setting": "[4]; in response to DOC", "result": "translocated to mitochondria"},
      {"measurement": "colony forming ability (CFA)", "setting": "[5]", "result": "not AA PCa"},
      {"measurement": "colony forming ability (CFA)", "setting": "[6]", "result": "abolished CFA"},
      {"measurement": "effect on the cell cycle", "setting": "[7]", "result": "cell cycle arrest at G2/M phase"},
      {"measurement": "effect on the cell cycle", "setting": "[8]", "result": "cell cycle arrest at G2/M phase"}
    ]},
    {"smiles": "COC[C@H]1OC(=O)c2coc3c2[C@@]1(C)C1=C(C3=O)[C@@H]2CCC(=O)[C@@]2(C)C[C@H]1OC(C)=O", "note": "[wortmanin]", "values": [
      {"measurement": "Drp1 phosphorylation at S616", "setting": "[9]", "result": "Inhibition of Drp1 phosphorylation at S616"}
    ]}
  ]
}
